Laboratory results published in patent US10653172B2, “Natural stilbenes as sweeteners or sweetener enhancer” (Analyticon Discovery GmbH, priority 2015, dated 2020).

Legend:
panel of 4 panelists = test: Organoleptic test of intrinsic sweet taste against sucrose; format: in vivo; details: 0.5 mg/ml (500 ppm) in non-carbonated mineral water; for sweetness compared with a solution of sucrose 20 mg/ml (control solution): control sucrose 20 mg/ml
Procedure: Organoleptic Test of the Compounds of Formula (I) Against Sucrose
Intrinsic sweet taste: The isolated pure compounds were dissolved in non-carbonated mineral water (“Fonsana Quelle”) in a concentration of 0.5 mg/ml (500 ppm). The sweet taste of each sample was compared by a panel of 4 panelists with a solution of sucrose in a concentration of 20 mg/ml.

[1] = system: panel of 3 sweet sensitive panelists; test: Organoleptic test of sweetness enhancement in combination with sucrose; format: in vivo; details: concentration stated to be near the sweetness detection threshold
Procedure: Organoleptic Test of the Compounds of Formula (I) in Combination with Known Sweeteners
Combination of (I) with Sucrose.
The sweetness enhancement properties of compound Aa and Bb was determined using a sample having a concentration of 100 μg/ml compound Aa and Bb, which is near the sweetness detection threshold, in 7% sucrose solution. The compound Aa and Bb sample was directly compared to samples of 7%, 8% or 9% sucrose, and panelists were instructed to compare the sweetness intensity of the samples. The comparisons were carried out by a panel of 3 sweet sensitive panelists. All samples were presented to panelists in 5 ml aliquots at ambient temperature. Panelists compared the compound Aa and Bb sample to each of the sucrose samples.

| SMILES | off-taste (panel of 4 panelists) | sweetness compared with a solution of sucrose 20 mg/ml (control solution) (panel of 4 panelists) | sweetness detection threshold [1] [µg/mL] |
| --- | --- | --- | --- |
| OC[C@H]1O[C@@H](Oc2ccc(/C=C/c3cc(O)cc(O)c3)cc2O)[C@H](O)[C@@H](O)[C@@H]1O [Compound Bb, Piceatannol 4′-O-β-D-glucopyranoside] | no significant off-taste | comparable with the control solution | ~100 |
| COc1cc(/C=C/c2cc(O)cc(O)c2)ccc1O[C@@H]1O[C@H](CO)[C@@H](O)[C@H](O)[C@H]1O [Compound Aa, Gnetifolin E] | no significant off-taste | comparable with the control solution | ~100 |
